According to PMC8569227 (Frontiers in Plant Science, 2021):
Values joined by “and” are separate entries in the source; they are usually repeats but may differ in a detail not shown here. Equal values may be shown once. Read-outs that look alike come from different tables or passages of the source.

Columns and labels:
[1] = biological target: T1, Arabidopsis thaliana AOX1A (rAtAOX1A) (Arabidopsis thaliana, UniProt Q39219); test: biochemical; details: rAtAOX1A IC50, membrane-bound protein, 300 μM NADH, MOPS buffer pH 7.5
T1 sequence (Q39219 63-354): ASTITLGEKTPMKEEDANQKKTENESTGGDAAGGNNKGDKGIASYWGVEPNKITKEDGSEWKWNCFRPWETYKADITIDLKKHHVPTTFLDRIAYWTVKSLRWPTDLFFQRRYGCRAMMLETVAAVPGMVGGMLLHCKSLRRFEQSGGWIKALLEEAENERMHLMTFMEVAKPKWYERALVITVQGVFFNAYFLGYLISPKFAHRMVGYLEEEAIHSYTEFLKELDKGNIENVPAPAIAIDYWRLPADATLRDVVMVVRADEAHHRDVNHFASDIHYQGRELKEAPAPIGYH

[2] = biological target: T1, Arabidopsis thaliana AOX1A (rAtAOX1A); assay type: biochemical; details: for Effect on oxygen consumption rate of rAtAOX1A (in words) / Fold change of oxygen consumption rate of rAtAOX1A vs control: 10 mM effector, membrane-bound protein, 1 mM NADH; for Effect on oxygen consumption rate of rAtAOX1A (in words): 1 mM KCN (Figure 5); for Fold change of oxygen consumption rate of rAtAOX1A vs control: 1 mM KCN (Figure 5C)
[3] = biological target: T2, recombinant Trypanosoma brucei AOX (rTAO) (Trypanosoma brucei brucei, UniProt Q26710); assay type: biochemical
T2 sequence (Q26710 25-329): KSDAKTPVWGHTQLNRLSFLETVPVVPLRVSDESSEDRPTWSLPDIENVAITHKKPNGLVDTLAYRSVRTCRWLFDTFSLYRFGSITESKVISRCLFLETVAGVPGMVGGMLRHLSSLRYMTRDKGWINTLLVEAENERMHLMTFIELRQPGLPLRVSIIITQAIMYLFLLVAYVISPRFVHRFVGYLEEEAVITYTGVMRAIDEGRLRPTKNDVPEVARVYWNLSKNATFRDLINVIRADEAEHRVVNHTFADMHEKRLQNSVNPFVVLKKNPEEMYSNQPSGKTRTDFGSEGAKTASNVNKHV

[4] = biological target: T1, Arabidopsis thaliana AOX1A (rAtAOX1A); assay type: biochemical
Description: (§1) Kinetic analysis of the purified rTAO and rAtAOX1A was performed spectrophotometrically using a Cary 4000 UV spectrophotometer (Varian, UK Ltd, Surrey UK) with the packaged software. All assays were performed in 65 mM MOPS buffer pH 7.5 with different concentrations of quinol-1 as the substrate, measuring the conversion of Q1H2 (ubiquinol-1) to Q1 (ubiquinone-1) at 278 nm (ε = 15,000 M^−1 cm^−1). Q1 was reduced to Q1H2 prior to experimentation via sonication with zinc powder under an inert atmosphere for ~10 min, with the resultant zinc then being removed via centrifugation at 2,000 g.

[5] = biological target: T2, recombinant Trypanosoma brucei AOX (rTAO); test: Quinol kinetics of purified rTAO, Q1H2 oxidation at 278 nm; assay type: biochemical; details: MOPS pH 7.5
Description: as §1

[6] = biological target: T2, recombinant Trypanosoma brucei AOX (rTAO); test: biochemical; details: rTAO IC50, membrane-bound protein, 300 μM NADH, MOPS buffer pH 7.5

## C/C(=C\Cc1c(O)c(Cl)c(C)c(C=O)c1O)CC/C=C(\C)[C@@H]1CC(=O)C(C)(C)O1 [AF, ascofuranone]
[1]
  IC50: 6.21 nM

## O=C(NO)c1ccccc1O [SHAM, salicylic hydroxamic acid]
[1]
  IC50: 33000 nM

## CC(C)=CCC/C(C)=C/Cc1c(O)c(Cl)c(C)c(C=O)c1O [CB, colletochlorin B]
[1]
  IC50: 2.82 nM and 2.8 nM

## CCC(=O)O [propanoic acid]
[2]
  Effect on oxygen consumption rate of rAtAOX1A (in words): no stimulation

## O=C(O)CCC(=O)O [succinate]
[2]
  Effect on oxygen consumption rate of rAtAOX1A (in words): dramatically promoted

## Nc1ncnc2c1ncn2[C@@H]1O[C@H](COP(=O)(O)OP(=O)(O)O)[C@@H](O)[C@H]1O [ADP, adenosine diphosphate]
[2]
  Fold change of oxygen consumption rate of rAtAOX1A vs control: 1.4 fold

## Nc1nc2c(ncn2[C@@H]2O[C@H](COP(=O)(O)OP(=O)(O)O)[C@@H](O)[C@H]2O)c(=O)[nH]1 [GDP]
[2]
  Fold change of oxygen consumption rate of rAtAOX1A vs control: 1.4 fold

## CC(=O)C(=O)O [pyruvate]
[3]; 10 mM effector, membrane-bound protein
  Activation of oxygen consumption rate of rTAO (in words): but not that of rTAO
[2]
  Fold change of oxygen consumption rate of rAtAOX1A vs control: more than 7 fold
[2]; 10 mM pyruvate, membrane samples, 1.25 mM NADH (Figure 4)
  Respiratory rate of rAtAOX1A with vs without pyruvate: ~ 6 fold
[2]; 10 mM pyruvate, membrane-bound protein (Figure 4)
  Change of Km for O2 of rAtAOX1A: increased Km value for O2
[4]; 10 mM pyruvate during purification and in the assay, purified protein
  Change of Km for Q1H2 of rAtAOX1A: remained unchanged
[4]; 10 mM pyruvate during purification and in the assay, purified protein, Q1H2 substrate
  Change of Vmax of rAtAOX1A: increased approximately five times

## COc1c(O)c(C)c(CC=C(C)C)c(O)c1OC [Q1H2, ubiquinol-1]
[5]
  Km: 451 µM
[4]; purified rAtAOX1A, without pyruvate, MOPS pH 7.5, read-out: Km for Q1H2, rAtAOX1A
  Km: 26 µM

## CC(/C=C/[C@@]1(C)[C@H](C)CCC(=O)[C@@H]1C)=C\Cc1c(O)c(Cl)c(C)c(C=O)c1O [AC, ascochlorin]
[1]
  IC50: 14.7 nM
[6]
  IC50: 3.8 nM and 3.7 nM

## CC(=O)O [acetic acid]
[2]
  Effect on oxygen consumption rate of rAtAOX1A (in words): no stimulation

## O=C(O)CC(=O)C(=O)O [oxaloacetate]
[2]
  Effect on oxygen consumption rate of rAtAOX1A (in words): dramatically promoted

## O=O [O2, oxygen]
[3]; membrane samples, 25°C, 1.25 mM NADH, without pyruvate, read-out: Km for O2, rTAO
  Km: 1.15 µM
[2]; membrane samples, 25°C, 1.25 mM NADH, without pyruvate, read-out: Km for O2, rAtAOX1A
  Km: 2.41 µM

## CC(C)=CCc1c(O)c(Cl)c(C)c(C=O)c1O [CD, colletochlorin D]
[1]
  IC50: 5.76 nM
[6]
  IC50: 3.73 nM and 3.8 nM

## CCCCCCCCOC(=O)c1cc(O)c(O)c(O)c1 [OG, octylgallate]
[1]
  IC50: 1580 nM
[6]
  IC50: 417 nM

## O=CC(=O)O [glyoxylate]
[2]
  Fold change of oxygen consumption rate of rAtAOX1A vs control: more than 7 fold
